Measurements: patent US20250034170A1, “SMALL MOLECULE MODULATORS OF GLUCOCEREBROSIDASE ACTIVITY AND USES THEREOF” (Vanqua Bio, Inc., priority 2021, published 2025)

molecular target: T1, GCase (Homo sapiens, UniProt P04062); test: activation of GCase in a live cell PFB assay in HELA cells; type: cell-based; conditions: activation of GCase, EC50 ranges
T1 construct: endogenous in cells; host or cells: HeLa cells
T1 sequence (P04062 40-536): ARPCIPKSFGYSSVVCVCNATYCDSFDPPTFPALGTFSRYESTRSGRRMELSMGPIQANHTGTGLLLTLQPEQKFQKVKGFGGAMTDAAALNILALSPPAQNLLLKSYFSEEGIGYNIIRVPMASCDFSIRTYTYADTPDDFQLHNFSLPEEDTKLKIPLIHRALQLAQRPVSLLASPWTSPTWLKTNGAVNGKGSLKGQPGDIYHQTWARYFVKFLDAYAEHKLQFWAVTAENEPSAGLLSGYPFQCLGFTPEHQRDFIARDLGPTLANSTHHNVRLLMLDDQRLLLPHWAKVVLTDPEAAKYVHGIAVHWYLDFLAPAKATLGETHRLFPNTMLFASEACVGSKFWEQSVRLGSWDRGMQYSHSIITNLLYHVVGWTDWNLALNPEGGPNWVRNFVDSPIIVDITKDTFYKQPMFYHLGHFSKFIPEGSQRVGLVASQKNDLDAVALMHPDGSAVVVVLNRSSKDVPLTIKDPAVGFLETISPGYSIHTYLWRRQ
Description: Exemplary compounds were evaluated for activation of GCase in a live cell PFB assay in HELA cells (essentially as described in Ysselstein et al., “LRRK2 kinase activity regulates lysosomal glucocerebrosidase in neurons derived from Parkinson's disease patients” Nature Communications (2019) 10:5570). […] EC50 ranges: A: <10 μM; B: >10-50 μM; C: >50-100 μM; D: >100 μM.

EC50	SMILES
10 to 50 µM	O=C1CC2(CCN(c3cnc4cnn(CC(F)F)c4n3)CC2)CCN1c1ccc(C(F)(F)F)cn1 [Cmpd 293]
10 to 50 µM	O=C1CCC2(CCN(c3cnc4cnn(CC(F)F)c4n3)CC2)CN1c1ccc(C(F)(F)F)cn1 [Cmpd 294]
10 to 50 µM	FC(F)Cn1ncc2cnc(N3CCC4(CN(c5ccnc(C(F)(F)F)c5)C4)C3)nc21 [Cmpd 295]
< 10 µM	Cc1nn(CC(F)F)c2nc(N3CCC4(CN(c5ccnc(C(F)(F)F)c5)C4)C3)ncc12 [Cmpd 296]
10 to 50 µM	COc1nc(N2CCC3(CN(c4ccnc(C(F)(F)F)c4)C3)C2)nc2c1cnn2CC(F)F [Cmpd 297]
> 100 µM	FC(F)Cn1ncc2ncc(N3CCC4(CN(c5cncc(C(F)(F)F)n5)C4)C3)nc21 [Cmpd 298]
10 to 50 µM	FC(F)Cn1ncc2ncc(N3CCC4(C3)CN(c3nccc(C(F)(F)F)n3)C4)nc21 [Cmpd 299]
50 to 100 µM	CC(C)N1C(=O)N(c2cc(C(F)(F)F)ccn2)C(=O)C12CN(c1cnc3cnn(CC(F)F)c3n1)C2 [Cmpd 300]
10 to 50 µM	Cc1nn(CC(F)F)c2nc(N3CCC4(CC3)CCN(c3cc(C(F)(F)F)ccn3)C4=O)ncc12 [Cmpd 301]
< 10 µM	Cc1nn(CC(F)F)c2nc(N3CCC4(CC3)CC(=O)N(c3cc(C(F)(F)F)ccn3)C4)ncc12 [Cmpd 302]
< 10 µM	COc1nc(N2CCC3(CC2)CCN(c2cc(C(F)(F)F)ccn2)C3=O)nc2c1cnn2CC(F)F [Cmpd 303]
< 10 µM	COc1nc(N2CCC3(CC2)CC(=O)N(c2cc(C(F)(F)F)ccn2)C3)nc2c1cnn2CC(F)F [Cmpd 304]
10 to 50 µM	O=C1CC2(CCN(c3cnc4cnn(CC(F)F)c4n3)CC2)CN1c1cnc(C(F)(F)F)nc1 [Cmpd 305]
10 to 50 µM	O=C1N(c2cnc(C(F)(F)F)nc2)CCC12CCN(c1cnc3cnn(CC(F)F)c3n1)CC2 [Cmpd 306]
< 10 µM	O=C1CC2(CCN(c3cnc4cnn(CC(F)F)c4n3)CC2)CN1Cc1ccc(C(F)(F)F)nc1 [Cmpd 307]
10 to 50 µM	O=C1N(Cc2ccc(C(F)(F)F)nc2)CCC12CCN(c1cnc3cnn(CC(F)F)c3n1)CC2 [Cmpd 308]
10 to 50 µM	O=C1CC2(CCN(c3cnc4cnn(CC(F)F)c4n3)CC2)CN1Cc1ccc(C(F)(F)F)cn1 [Cmpd 309]
10 to 50 µM	O=C1N(Cc2ccc(C(F)(F)F)cn2)CCC12CCN(c1cnc3cnn(CC(F)F)c3n1)CC2 [Cmpd 310]
10 to 50 µM	O=C1N(c2cc(C(F)(F)F)ccn2)C2(CC2)CC12CCN(c1cnc3cnn(CC(F)F)c3n1)CC2 [Cmpd 311]
50 to 100 µM	O=C1N(c2ccc(C(F)(F)F)cn2)C2(CC2)CC12CCN(c1cnc3cnn(CC(F)F)c3n1)CC2 [Cmpd 312]
10 to 50 µM	O=C(c1ccc(C(F)(F)F)nc1)N1CCC2(CCN(c3cnc4cnn(CC(F)F)c4n3)CC2)C1 [Cmpd 313]
> 100 µM	O=C(c1ccc(C(F)(F)F)cn1)N1CCC2(CCN(c3cnc4cnn(CC(F)F)c4n3)CC2)C1 [Cmpd 314]
10 to 50 µM	O=C1CCC2(CN(c3cnc4cnn(CC(F)F)c4n3)C2)CN1c1ccc(C(F)(F)F)cn1 [Cmpd 315]
10 to 50 µM	FC(F)Cn1ncc2ncc(N3CCC4(CN(c5cnc(C(F)(F)F)nc5)C4)C3)nc21 [Cmpd 316]

EC50	SMILES
10 to 50 µM	FC(F)Cn1ncc2ncc(N3CCC4(CN(c5cnc(C(F)(F)F)cn5)C4)C3)nc21 [Cmpd 317]
10 to 50 µM	FC(F)Cn1ncc2ncc(N3CCC4(CN(c5ccnc(C(F)(F)F)n5)C4)C3)nc21 [Cmpd 318]
10 to 50 µM	FC(F)Cn1ncc2ncc(N3CCC4(C3)CN(c3ncc(C(F)(F)F)cn3)C4)nc21 [Cmpd 319]
< 10 µM	FC(F)Cn1ncc2ncc(N3CCC4(CN(Cc5ccc(C(F)(F)F)nc5)C4)C3)nc21 [Cmpd 320]
< 10 µM	FC(F)Cn1ncc2ncc(N3CCC4(CN(Cc5ccc(C(F)(F)F)cn5)C4)C3)nc21 [Cmpd 321]
10 to 50 µM	O=C(c1ccc(C(F)(F)F)nc1)N1CC2(CCN(c3cnc4cnn(CC(F)F)c4n3)C2)C1 [Cmpd 322]
> 100 µM	O=C(c1ccc(C(F)(F)F)cn1)N1CC2(CCN(c3cnc4cnn(CC(F)F)c4n3)C2)C1 [Cmpd 323]
10 to 50 µM	O=C(c1cnc(C(F)(F)F)nc1)N1CCC2(CCN(c3cnc4cnn(CC(F)F)c4n3)CC2)C1 [Cmpd 324]
10 to 50 µM	O=C(c1cnc(C(F)(F)F)nc1)N1CC2(CCN(c3cnc4cnn(CC(F)F)c4n3)C2)C1 [Cmpd 325]
10 to 50 µM	O=C(c1cnc(C(F)(F)F)nc1)N1CC2(CCN(c3cnc4cnn(CC(F)F)c4n3)CC2)C1 [Cmpd 326]
10 to 50 µM	O=C(c1ccc(C(F)(F)F)nc1)N1CC2(CCN(c3cnc4cnn(CC(F)F)c4n3)CC2)C1 [Cmpd 327]
10 to 50 µM	O=C(c1ccc(C(F)(F)F)cn1)N1CC2(CCN(c3cnc4cnn(CC(F)F)c4n3)CC2)C1 [Cmpd 328]
10 to 50 µM	O=C(c1cnc(C(F)(F)F)nc1)N1CCC2(CC1)CN(c1cnc3cnn(CC(F)F)c3n1)C2 [Cmpd 329]
10 to 50 µM	O=C(c1ccc(C(F)(F)F)cn1)N1CCC2(CC1)CN(c1cnc3cnn(CC(F)F)c3n1)C2 [Cmpd 330]
10 to 50 µM	O=C1N(Cc2cncc(F)c2)CCC12CCN(c1cnc3cnn(CC(F)F)c3n1)CC2 [Cmpd 331]
< 10 µM	O=C1N(Cc2cncc(C(F)(F)F)c2)CCC12CCN(c1cnc3cnn(CC(F)F)c3n1)CC2 [Cmpd 332]
< 10 µM	O=C1N(Cc2cncc(Cl)c2)CCC12CCN(c1cnc3cnn(CC(F)F)c3n1)CC2 [Cmpd 333]
50 to 100 µM	O=C1CC2(CCN(c3cnc4cnn(CC(F)F)c4n3)CC2)CN1Cc1cncc(F)c1 [Cmpd 334]
10 to 50 µM	O=C1CC2(CCN(c3cnc4cnn(CC(F)F)c4n3)CC2)CN1Cc1cncc(C(F)(F)F)c1 [Cmpd 335]
10 to 50 µM	O=C1CC2(CCN(c3cnc4cnn(CC(F)F)c4n3)CC2)CN1Cc1cncc(Cl)c1 [Cmpd 336]
< 10 µM	O=C1N(c2ccnc(C(F)(F)F)c2)CCC12CN(c1cnc3cnn(CC(F)F)c3n1)C2 [Cmpd 337]
10 to 50 µM	O=C1CC2(CN(c3cnc4cnn(CC(F)F)c4n3)C2)CN1c1ccnc(C(F)(F)F)c1 [Cmpd 338]
10 to 50 µM	O=C1N(c2cnc3cnn(CC(F)F)c3n2)CCC12CN(c1ccnc(C(F)(F)F)c1)C2 [Cmpd 339]
< 10 µM	O=C1CC2(CN(c3ccnc(C(F)(F)F)c3)C2)CN1c1cnc2cnn(CC(F)F)c2n1 [Cmpd 340]

EC50	SMILES
10 to 50 µM	O=C1N(c2ccc(C(F)(F)F)cn2)CCCC12CN(c1cnc3cnn(CC(F)F)c3n1)C2 [Cmpd 341]
> 100 µM	O=C1N(c2cnc3cnn(CC(F)F)c3n2)CCCC12CN(c1ccc(C(F)(F)F)nc1)C2 [Cmpd 342]
> 100 µM	O=C1N(c2cnc3cnn(CC(F)F)c3n2)CCCC12CN(c1ccc(C(F)(F)F)cn1)C2 [Cmpd 343]
< 10 µM	FC(F)(F)c1cc(N2CCC3(C2)CN(c2cnc4cnn(C5COC5)c4n2)C3)ccn1 [Cmpd 344]
< 10 µM	Cc1nn(C2COC2)c2nc(N3CC4(CCN(c5ccnc(C(F)(F)F)c5)C4)C3)cnc12 [Cmpd 345]
50 to 100 µM	O=C1N(c2ccnc(C(F)(F)F)c2)CCC12CN(c1cnc3cnn(C4COC4)c3n1)C2 [Cmpd 346]
10 to 50 µM	Cc1nn(C2COC2)c2nc(N3CC4(CCN(c5ccnc(C(F)(F)F)c5)C4=O)C3)cnc12 [Cmpd 347]
10 to 50 µM	O=C1CC2(CN(c3cnc4cnn(C5COC5)c4n3)C2)CN1c1ccnc(C(F)(F)F)c1 [Cmpd 348]
10 to 50 µM	Cc1nn(C2COC2)c2nc(N3CC4(CC(=O)N(c5ccnc(C(F)(F)F)c5)C4)C3)cnc12 [Cmpd 349]
< 10 µM	FC(F)(F)Cn1ncc2ncc(N3CC4(CCN(c5ccnc(C(F)(F)F)c5)C4)C3)nc21 [Cmpd 350]
< 10 µM	FC(F)Cn1ncc2cnc(N3CC4(CCN(c5ccnc(C(F)(F)F)c5)C4)C3)nc21 [Cmpd 351]
< 10 µM	Cc1nn(CC(F)F)c2nc(N3CC4(CCN(c5ccnc(C(F)(F)F)c5)C4)C3)ncc12 [Cmpd 352]
< 10 µM	Cc1nn(CC(F)F)c2nc(N3CC4(CCN(c5ccnc(C(F)(F)F)c5)C4)C3)cnc12 [Cmpd 353]
< 10 µM	O=C1N(Cc2cccc(C(F)(F)F)n2)CCC12CCN(c1cnc3cnn(CC(F)F)c3n1)CC2 [Cmpd 354]
< 10 µM	O=C1N(Cc2cc(C(F)(F)F)ccn2)CCC12CCN(c1cnc3cnn(CC(F)F)c3n1)CC2 [Cmpd 355]
10 to 50 µM	CCOc1ccc(CN2CCC3(CCN(c4cnc5cnn(CC(F)F)c5n4)CC3)C2=O)cn1 [Cmpd 356]
< 10 µM	O=C1N(Cc2ccnc(C(F)(F)F)c2)CCC12CCN(c1cnc3cnn(CC(F)F)c3n1)CC2 [Cmpd 357]
< 10 µM	O=C1N(Cc2cc(F)cc(F)c2)CCC12CCN(c1cnc3cnn(CC(F)F)c3n1)CC2 [Cmpd 358]
< 10 µM	O=C1CC2(CCN(c3cnc4cnn(CC(F)F)c4n3)CC2)CN1Cc1cc(C(F)(F)F)ccn1 [Cmpd 359]
< 10 µM	O=C1CC2(CCN(c3cnc4cnn(CC(F)F)c4n3)CC2)CN1Cc1cccc(C(F)(F)F)n1 [Cmpd 360]
10 to 50 µM	CCOc1ccc(CN2CC3(CCN(c4cnc5cnn(CC(F)F)c5n4)CC3)CC2=O)cn1 [Cmpd 361]
< 10 µM	O=C1CC2(CCN(c3cnc4cnn(CC(F)F)c4n3)CC2)CN1Cc1ccnc(C(F)(F)F)c1 [Cmpd 362]
< 10 µM	O=C1CC2(CCN(c3cnc4cnn(CC(F)F)c4n3)CC2)CN1Cc1cc(F)cc(F)c1 [Cmpd 363]
